In ChEMBL document CHEMBL1121661, “Synthesis and antitumor activity of a series of sulfone analogues of 1,4-naphthoquinone” (1981):

Legend:
Type in all cases: functional
Mus musculus [1] = assay: Percent inhibition of Ehrlich ascites carcinoma growth at 10 mg/kg per day
Mus musculus [2] = assay: Effect on Ehrlich ascites carcinoma growth in CF1 mice at 10 mg/kg per day ip survival at day 9; 8/8; conditions: route intraperitoneal
Mus musculus [3] = assay: Effect on P-388 lymphocytic leukemia growth at a given dose 10 mg/kg per day ip expressed as average survival days of treated mice; conditions: route intraperitoneal
Mus musculus [4] = assay: Percent packed cell volume at 10 mg/kg per day
Mus musculus [5] = assay: Effect on P-388 lymphocytic leukemia growth at a given dose 10 mg/kg per day ip expressed as ratio of treated / control (T/C>125 is required for significant activity); conditions: route intraperitoneal
Mus musculus [6] = assay: Percent packed cell volume at 10 mg/kg per day per mouse; design: unit not given here
Mus musculus [7] = assay: Effect on Ehrlich ascites carcinoma growth in CF1 mice at 10 mg/kg per day ip survival at day 9; 6/6; conditions: route intraperitoneal
Mus musculus [8] = assay: Effect of compound on P-388 lymphocytic leukemia growth at a given dose 15 mg/kg per day ip expressed as average survival days of treated mice; conditions: route intraperitoneal
Mus musculus [9] = assay: Effect of compound on P-388 lymphocytic leukemia growth at a given dose 15 mg/kg per day ip expressed as ratio of treated / control (T/C>125 is required for significant activity); conditions: route intraperitoneal
Mus musculus [10] = assay: Effect of compound on P-388 lymphocytic leukemia growth at a given dose 10 mg/kg per day ip expressed as ratio of treated / control; conditions: route intraperitoneal
Mus musculus [11] = assay: Percent packed cell volume at 5 (mg/kg)/day per mouse
Mus musculus [12] = assay: Percent packed cell volume at 5 (mg/kg)/day
Mus musculus [13] = assay: Effect of compound on Ehrlich ascites carcinoma growth in CF1 mice at 5 mg/kg per day ip survival at day 9; 5/6; conditions: route intraperitoneal
Mus musculus [14] = assay: Effect of compound on Ehrlich ascites carcinoma growth in CF1 mice at 10 mg/kg per day ip survival at day 9; 3/8; conditions: route intraperitoneal
Mus musculus [15] = assay: Percent inhibition of Ehrlich ascites carcinoma growth at 5 (mg/kg)/day
Mus musculus [16] = assay: Effect of compound on P-388 lymphocytic leukemia growth at a given dose 2.5 mg/kg per day ip expressed as average survival days of treated mice; conditions: route intraperitoneal
Mus musculus [17] = assay: Effect of compound on P-388 lymphocytic leukemia growth at a given dose 25 mg/kg per day ip expressed as ratio of treated / control (T/C>125 is required for significant activity); conditions: route intraperitoneal
Mus musculus [18] = assay: Effect of compound on P-388 lymphocytic leukemia growth at a given dose 6.25 mg/kg per day ip expressed as ratio of treated / control (T/C>125 is required for significant activity); conditions: route intraperitoneal
Mus musculus [19] = assay: Effect of compound on P-388 lymphocytic leukemia growth at a given dose 4 mg/kg per day ip expressed as average survival days of treated mice; conditions: route intraperitoneal
Mus musculus [20] = assay: Effect of compound on P-388 lymphocytic leukemia growth at a given dose 5 mg/kg per day ip expressed as average survival days of treated mice; conditions: route intraperitoneal
Mus musculus [21] = assay: Effect of compound on P-388 lymphocytic leukemia growth at a given dose 12.50 mg/kg per day ip expressed as ratio of treated / control (T/C>125 is required for significant activity); conditions: route intraperitoneal
Mus musculus [22] = assay: Effect of compound on P-388 lymphocytic leukemia growth at a given dose 10 mg/kg per day ip expressed as ratio of treated / control (T/C>125 is required for significant activity); conditions: route intraperitoneal
Mus musculus [23] = assay: Effect of compound on P-388 lymphocytic leukemia growth at a given dose 5 mg/kg per day ip expressed as ratio of treated / control (T/C>125 is required for significant activity); conditions: route intraperitoneal
Mus musculus [24] = assay: Effect of compound on P-388 lymphocytic leukemia growth at a given dose 15 mg/kg per day ip expressed as ratio of treated / control; conditions: route intraperitoneal
Mus musculus [25] = assay: Effect of compound on P-388 lymphocytic leukemia growth at a given dose 15 mg/kg per dayip expressed as average survival days of treated mice
Mus musculus [26] = assay: Effect of compound on Ehrlich ascites carcinoma growth in CF1 mice at 20 mg/kg per day ip survival at day 9; 8/8; conditions: route intraperitoneal
Mus musculus [27] = assay: Effect of compound on Ehrlich ascites carcinoma growth in CF1 mice at a dose ((20 mg/kg)/day) ip survival at day 9 packed cell volume as a percent
Mus musculus [28] = assay: Effect of compound on Ehrlich ascites carcinoma growth in CF1 mice at a dose ((20 mg/kg)/day) ip survival at day 9 packed cell volume
Mus musculus [29] = assay: Effect of compound on P-388 lymphocytic leukemia growth at a given dose 25 mg/kg per day ip expressed as average survival days of treated mice; conditions: route intraperitoneal
Mus musculus [30] = assay: Percent packed cell volume at 200 mg/kg per day
Mus musculus [31] = assay: Effect of compound on Ehrlich ascites carcinoma growth in CF1 mice at 200 mg/kg per day ip survival at day 9; 6/6; conditions: route intraperitoneal
Mus musculus [32] = assay: Percent packed cell volume at 200 mg/kg per day per mouse
Mus musculus [33] = assay: Percent inhibition of Ehrlich ascites carcinoma growth at 200 mg/kg per day

Structure (SMILES) | inhibition in vivo at 10 mg/kg/day (Mus musculus [1]) [%] | Survivors at day 9 (Mus musculus [2]) | Days (Mus musculus [3]) | % (Mus musculus [4]) | Volume (Mus musculus [6]) | Survivors at day 9 (Mus musculus [7]) | also measured
O=C1C(CCl)=C(CCl)C(=O)c2ccccc21 | 98.8 | 8 | 12.2 | 5 | 0.31 |  | T/C (Mus musculus [5]): 128
O=C1C(CN(CCCl)CCCl)=CS(=O)(=O)c2ccccc21 | 99.9 |  |  | 2 | 0.01 | 6 | 
CCC(=O)OCC1=CS(=O)(=O)c2ccccc2C1=O | 99.5 |  |  | 0.07 | 0.23 | 6 | 
O=C(OCC1=CS(=O)(=O)c2ccccc2C1=O)c1ccccc1 | 0 | 8 |  | 33.7 | 2.7 |  | 
O=C1C(COC(=O)N(C(=O)Nc2ccccc2)c2ccccc2)=CS(=O)(=O)c2ccccc21 | 69.3 |  |  | 38 | 0.58 | 6 | 
O=C1c2ccccc2S(=O)(=O)CC1CCl (centres undefined) | 36.3 | 8 |  | 43.5 | 1.84 |  | Days (Mus musculus [8]): 10; T/C (Mus musculus [9]): 105
O=C1C(CNc2ccccc2)=CS(=O)(=O)c2ccccc21 | 0 | 8 |  | 40.2 | 2.8 |  | 
O=C1C(Br)=C(c2ccccc2)S(=O)(=O)c2ccccc21 | 0.4 | 8 | 11.4 | 30.6 | 4.06 |  | T/C (Mus musculus [10]): 120
COCCOCC1=CS(=O)(=O)c2ccccc2C1=O | 98.2 |  |  | 8.2 | 0.07 | 6 | 
O=C1C(CO)=CS(=O)(=O)c2ccccc21 | 99.3 |  |  | 0.7 | 0.4 |  | Volume (Mus musculus [11]): 0.07; % (Mus musculus [12]): 4.8; Survivors at day 9 (Mus musculus [13]): 5; Survivors at day 9 (Mus musculus [14]): 3; Inhibition (Mus musculus [15]): 95.6%
CC(C)OCC1=CS(=O)(=O)c2ccccc2C1=O | 99.2 |  | 11.6 | 3.19 | 0.28 | 6 | T/C (Mus musculus [5]): 122
O=C1C(CBr)=CS(=O)(=O)c2ccccc21 | 92.8 | 8 | 10 | 8.63 | 0.35 |  | T/C (Mus musculus [5]): 105
O=C1C(CI)=CS(=O)(=O)c2ccccc21 | 98 |  |  | 9.57 | 0.15 | 6 | 
CCCOCC1=CS(=O)(=O)c2ccccc2C1=O | 99.9 |  |  | 0.19 | 0.12 | 6 | 
CCNC(=O)OCC1=CS(=O)(=O)c2ccccc2C1=O | 99.3 |  |  | 1.33 | 0.38 | 6 | 
O=c1cc[s+]([O-])c2ccccc12 (centres undefined) | 89.6 |  |  | 27.8 | 0.27 | 6 | 
O=COCC1=CS(=O)(=O)c2ccccc2C1=O | 91.6 |  |  | 4.23 | 0.57 | 6 | 
COCC1=CS(=O)(=O)c2ccccc2C1=O | 99.9 | 8 | 12 | 0.1 | 0.1 |  | T/C (Mus musculus [5]): 126
CC(=O)OCC1=CS(=O)(=O)c2ccccc2C1=O | 99.5 | 8 | 6.6 | 2 | 0.33 |  | Days (Mus musculus [16]): 10.2; T/C (Mus musculus [17]): 122; T/C (Mus musculus [18]): 107; T/C (Mus musculus [5]): 69; Days (Mus musculus [19]): 11.3; Days (Mus musculus [20]): 11.6; T/C (Mus musculus [21]): 118
CCOCC1=CS(=O)(=O)c2ccccc2C1=O | 92.4 | 8 | 12.2 | 17.8 | 0.54 |  | Days (Mus musculus [20]): 10.4; T/C (Mus musculus [22]): 128; Days (Mus musculus [8]): 9.6; T/C (Mus musculus [9]): 101; T/C (Mus musculus [23]): 109
O=C1C(COCCCl)=CS(=O)(=O)c2ccccc21 | 98.1 |  |  | 7.93 | 0.07 | 6 | 
O=C1C(CN2CCOCC2)=CS(=O)(=O)c2ccccc21 | 0 | 8 |  | 43.3 | 1.25 |  | 
O=C1C(COCCBr)=CS(=O)(=O)c2ccccc21 | 100 | 8 |  | 0 | 0.05 |  | 
CC1=C(Br)C(=O)c2ccccc2S1(=O)=O | 22.8 | 8 |  | 34.3 | 2.82 |  | Days (Mus musculus [8]): 10.2; T/C (Mus musculus [9]): 107
O=C1C=CS(=O)(=O)c2ccccc21 | 5.5 | 8 | 11.4 | 42.6 | 2.78 |  | T/C (Mus musculus [5]): 120
O=C1C(Br)=CS(=O)(=O)c2ccccc21 | 69.9 | 8 | 12.4 | 38.3 | 0.99 |  | T/C (Mus musculus [10]): 130; T/C (Mus musculus [24]): 99; Days (Mus musculus [25]): 9.4
O=C1C(CBr)=C(CBr)S(=O)(=O)c2ccccc21 | 53.9 | 8 | 10.3 | 37.2 | 0.76 |  | Survivors at day 9 (Mus musculus [26]): 8; % (Mus musculus [27]): 25.2; Inhibition (Mus musculus [27]): 69.9%; T/C (Mus musculus [5]): 108; Volume (Mus musculus [28]): 0.99
Cc1sc2ccccc2c(=O)c1CBr | 25.8 | 8 | 11.4 | 42.7 | 2.1 |  | T/C (Mus musculus [5]): 120
O=c1[nH]cc(F)c(=O)[nH]1 [FLUOROURACIL] |  |  |  |  |  |  | Days (Mus musculus [29]): 17.6; T/C (Mus musculus [17]): 186
Sc1ncnc2nc[nH]c12 [MERCAPTOPURINE ANHYDROUS] |  |  |  |  |  |  | % (Mus musculus [30]): 0.3; Survivors at day 9 (Mus musculus [31]): 6; Volume (Mus musculus [32]): 0.7; inhibition in vivo at 200 mg/kg/day (Mus musculus [33]): 99.6%
